The source of these data is US7662404B2, “Transdermal delivery system for dried particulate or lyophilized peptides and polypeptides” (TransPharma Medical Ltd., priority 2002, dated 2010).

The nature of the series: Plasma hPTH (1-34) after SC injection or printed patches (water) with ViaDerm in pigs (Example 11). The format is in vivo. Particulars: for bioavailability: read-out: % bioavailability cf. to S.C. The method, then: Pigs (males, 10-12 kg, Large white) were treated as follows:
Group 1: 10 μg of hPTH (1-34) were injected subcutaneously (S.C.; total 3 pigs)
[…] Printed patches containing 50 μg hPTH (1-34) were placed over the treated area and covered with Tegaderm (3M Health Care, St. Paul, Minn.). Total delivery area=1.4 cm (total 3 pigs).
(§1) […] Printed patches containing 100 μg hPTH (1-34) were placed over the treated area and covered with Tegaderm. Total delivery area=1.4 cm (total 3 pigs).
as §1
hPTH (1-34) was dissolved in water and then printed on the patches. hPTH (1-34) concentrations in pig plasma were measured by an ELISA kit (Immutopics, San Clemente, Calif., USA).

Where two headings read alike, the source gives them in different places.

The term AUC denotes concentration integrated over time. By Cmax is commonly meant the peak of the concentration-time curve. By bioavailability is commonly meant dose-corrected exposure relative to a reference, in per cent.

`CC[C@H](C)[C@H](NC(=O)[C@H](CCC(=O)O)NC(=O)[C@H](CO)NC(=O)[C@@H](NC(=O)[C@@H](N)CO)C(C)C)C(=O)N[C@@H](CCC(N)=O)C(=O)N[C@@H](CC(C)C)C(=O)N[C@@H](CCSC)C(=O)N[C@@H](Cc1cnc[nH]1)C(=O)N[C@@H](CC(N)=O)C(=O)N[C@@H](CC(C)C)C(=O)NCC(=O)N[C@@H](CCCCN)C(=O)N[C@@H](Cc1cnc[nH]1)C(=O)N[C@@H](CC(C)C)C(=O)N[C@@H](CC(N)=O)C(=O)N[C@@H](CO)C(=O)N[C@@H](CCSC)C(=O)N[C@@H](CCC(=O)O)C(=O)N[C@@H](CCCN=C(N)N)C(=O)N[C@H](C(=O)N[C@@H](CCC(=O)O)C(=O)N[C@@H](Cc1c[nH]c2ccccc12)C(=O)N[C@@H](CC(C)C)C(=O)N[C@@H](CCCN=C(N)N)C(=O)N[C@@H](CCCCN)C(=O)N[C@@H](CCCCN)C(=O)N[C@@H](CC(C)C)C(=O)N[C@@H](CCC(N)=O)C(=O)N[C@@H](CC(=O)O)C(=O)N[C@H](C(=O)N[C@@H](Cc1cnc[nH]1)C(=O)N[C@@H](CC(N)=O)C(=O)N[C@@H](Cc1ccccc1)C(=O)O)C(C)C)C(C)C` [hPTH (1-34)]: the Amount delivered reads like this: (S.C. 10 μg) 10 µg; (patch 100 μg) 225.18 µg; (patch 200 μg) 43.84 µg; (printed patch 50 μg) 12.6 µg. Further, the AUC turned out to be 0.46 ng·h/mL (male, Large white, pig, plasma, other: transdermal printed patch on ViaDerm-treated skin, 50 ug, printed patch 50 μg); 0.919 ng·h/mL (male, Large white, pig, plasma, other: transdermal printed patch on ViaDerm-treated skin, 100 ug, patch 100 μg); 1.6 ng·h/mL (male, Large white, pig, plasma, other: transdermal printed patch on ViaDerm-treated skin, 200 ug, patch 200 μg); 0.365 ng·h/mL (male, Large white, pig, plasma, sc, 10 ug, S.C. 10 μg). For the same molecule, the peak concentration (Cmax) (male, Large white, pig, plasma, other: transdermal printed patch on ViaDerm-treated skin, 50 ug, printed patch 50 μg (water), ViaDerm, back, read-out: Cmax) was about 0.15 ng/mL; the Cmax (male, Large white, pig, plasma, other: transdermal printed patch on ViaDerm-treated skin, 100 ug, printed patch 100 μg (water), ViaDerm, back, read-out: Cmax) is 0.32 ng/mL; the Cmax (male, Large white, pig, plasma, other: transdermal printed patch on ViaDerm-treated skin, 200 ug, printed patch 200 μg (water), ViaDerm, back, read-out: Cmax) was about 0.32 ng/mL; the Cmax (male, Large white, pig, plasma, sc, 10 ug, S.C. 10 μg, neck, read-out: Cmax) was found to be 0.374 ng/mL; the Cmax (printed patch 50 μg (water), ViaDerm, back) amounted to 0.136 ng/mL; the Cmax (printed patch 200 μg (water), ViaDerm, back) came out at 0.317 ng/mL. The bioavailability reads like this: (male, Large white, pig, plasma, sc, 10 ug, S.C. 10 μg (reference)) 100%; (male, Large white, pig, plasma, sc, 50 ug, printed patch 50 μg) 25.2%; (male, Large white, pig, plasma, sc, 100 ug, patch 100 μg) 25.2%; (male, Large white, pig, plasma, sc, 200 ug, patch 200 μg) 21.9%.
